Source: US9562043B2 (EA Pharma Co., Ltd., priority 2012, dated 2017)

What follows are compounds tested against T1, TRPA1 channel (Mus musculus, UniProt Q8BLA8) (assay: AITC-induced pain behavior evaluation test (mouse licking model)). Details: male ICR mice; p.o. 30 mpk, 1 h before AITC (0.1%) s.c. to sole; licking time in 5 min vs vehicle.
T1 construct: from tissue; host or cells: living male ICR mice (sole of the left leg, sensory nerves)
Assay type: in vivo
Description: AITC-Induced Pain Behavior Evaluation Test
To evaluate the effectiveness of the test substance in vivo, allylisothiocyanate (AITC)-induced pain behavior evaluation test was performed using mice.
AITC is a selective agonist of the TRPA1 channel, and causes a pain behavior by TRPA1 activation when administered to animal. Therefore, the intensity of the TRPA1 antagonist action of the test substance in the living body can be evaluated by measuring the pain behavior after AITC administration.
1. Administration of Test Substance to Animal
As the animal, male ICR mice (6- to 8-week-old) were used. The mice were fasted the previous day of the test. The test substance was intraperitoneally or orally administered for evaluation. In the case of intraperitoneal administration, the substance was administered 30 min before the AITC administration. In the oral administration, the substance was administered 60 min before the AITC administration.
2. AITC-Induced Pain Behavior Evaluation
3. Calculation of Inhibitory Rate
The licking time of the vehicle administration group in each test was taken as 100%, and the activity rate by administration of each test substance (Licking time on test substance administration/Licking time of vehicle administration group×100) was determined, and the numerical value obtained by subtracting the activity rate from 100 was calculated as an inhibitory rate.

T1 sequence (Q8BLA8 whole entry): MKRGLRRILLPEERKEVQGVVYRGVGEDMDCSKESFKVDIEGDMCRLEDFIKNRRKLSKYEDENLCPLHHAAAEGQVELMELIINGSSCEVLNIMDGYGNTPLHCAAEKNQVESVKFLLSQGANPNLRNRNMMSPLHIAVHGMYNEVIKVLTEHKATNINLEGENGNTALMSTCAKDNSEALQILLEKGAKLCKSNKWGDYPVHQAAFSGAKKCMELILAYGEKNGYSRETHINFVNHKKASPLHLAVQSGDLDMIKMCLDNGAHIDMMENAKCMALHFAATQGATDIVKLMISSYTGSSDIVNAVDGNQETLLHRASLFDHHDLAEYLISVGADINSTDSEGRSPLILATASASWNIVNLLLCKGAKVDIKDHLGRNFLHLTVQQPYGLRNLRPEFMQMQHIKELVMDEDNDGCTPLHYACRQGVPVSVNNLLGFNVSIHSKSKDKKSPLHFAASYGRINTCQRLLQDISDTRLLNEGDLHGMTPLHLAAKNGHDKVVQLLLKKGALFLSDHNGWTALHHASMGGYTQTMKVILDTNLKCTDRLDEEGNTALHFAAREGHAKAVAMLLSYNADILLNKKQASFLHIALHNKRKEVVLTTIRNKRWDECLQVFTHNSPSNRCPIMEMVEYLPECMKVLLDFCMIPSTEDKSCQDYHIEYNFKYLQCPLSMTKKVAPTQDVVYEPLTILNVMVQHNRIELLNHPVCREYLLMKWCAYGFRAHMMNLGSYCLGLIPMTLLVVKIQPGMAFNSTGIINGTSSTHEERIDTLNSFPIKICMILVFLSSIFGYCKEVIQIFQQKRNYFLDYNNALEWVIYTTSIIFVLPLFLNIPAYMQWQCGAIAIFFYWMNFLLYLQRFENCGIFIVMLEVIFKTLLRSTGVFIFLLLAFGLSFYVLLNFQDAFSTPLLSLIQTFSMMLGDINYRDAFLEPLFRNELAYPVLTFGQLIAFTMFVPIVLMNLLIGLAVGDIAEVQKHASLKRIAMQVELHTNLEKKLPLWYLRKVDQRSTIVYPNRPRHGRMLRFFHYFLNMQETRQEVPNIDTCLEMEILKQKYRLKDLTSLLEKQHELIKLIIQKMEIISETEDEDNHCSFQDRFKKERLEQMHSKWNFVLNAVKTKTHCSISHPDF

| mouse licking model (p.o. 1 h, 30 mpk) (% inh.) | Compound |
| --- | --- |
| 36 | O=C(NCc1nc(-c2ccc(C(F)(F)F)cc2)cs1)[C@@H]1CCCN1S(=O)(=O)c1ccc(Cl)s1 [compound 1, (2S)-1-(5-chlorothiophene-2-sulfonyl)-N-({4-[4-(trifluoromethyl)phenyl]thiazol-2-yl}methyl)pyrrolidine-2-carboxamide] |
| 43 | O=C(NCc1nc(-c2ccc(OC(F)(F)F)cc2)cs1)[C@@H]1C=CCN1S(=O)(=O)c1ccc(Cl)s1 [compound 20, (2S)-1-(5-chlorothiophene-2-sulfonyl)-N-({4-(4-(trifluoromethoxy)phenyl]-thiazol-2-yl}methyl)-3,4-didehydropyrrolidine-2-carboxamide] |

What follows are compounds tested against T2, human TRPA1 (Homo sapiens, UniProt O75762) (assay: Measurement of TRPA1 antagonist activity (intracellular calcium increase, FLIPR)). Details: 293T cells transfected with human TRPA1 expression plasmid, allylisothiocyanate 20 μM stimulation, calcium fluorescence, read-out: antagonism hTRPA1.
T2 construct: host or cells: human embryonic kidney-derived 293T cells, transient transfection with pcDNA3.1/zeo(+) plasmid
Assay type: cell-based
From the text: Measurement of TRPA1 Antagonist Activity
Human TRPA1 Expression Plasmid
As cDNA encoding human TRPA1 (GenBank accession No. […]), a commercially available product was purchased (manufactured by Kazusa DNA Research Institute, clone No.: pFN21AB7348, item No.: FHC07217). Using this as a template, full-length human TRPA1 gene was amplified using the primer sequences shown below, by reaction using DNA polymerase (manufactured by Stratagene, trade name: PfuUltra High-Fidelity DNA Polymerase).
A recognition site (underlined) of restriction enzyme HindIII was added to the 5′ side, and XbaI site (underlined) was added to the 3′ side, and GTT of the template sequence was changed to termination codon TAG (bold). The obtained double stranded DNA was enzyme-digested with HindIII and XbaI, and introduced into a multicloning site of expression plasmid pcDNA3.1/zeo(+) (manufactured by Invitrogen) to give a human TRPA1 expression plasmid.
Human embryonic kidney-derived 293T cells were cultured in Dulbecco's Modified Eagle Medium containing 10% fetal bovine serum, 10 unit penicillin, and 10 μg streptomycin, plated on a petri dish having a diameter of 10 cm at 3×10^6 cells, and cultured for 24 hr. A medium containing a reduced amount of serum (manufactured by Invitrogen, trade name: OPTI-MEM, 600 μL), a gene insertion reagent (manufactured by Mirus Bio, trade name: Mirus TransIT-293, 18 μL), and human TRPA1 expression plasmid (6 μg) were mixed, the total amount of the mixture was added to the cells on the petri dish to allow for gene transfer. The cells were recovered about 8 hr later, plated on a poly-D-lysine coated 384 well black/clear bottom plate at 7,500-12,000 cells/well, and cultured overnight.
Measurement of Intracellular Calcium Increase
The 384 well plate was recovered, and the medium was removed. A calcium-bonded fluorescent indicator (manufactured by Molecular Device, trade name: Calcium4 Assay Kit, 40 μL) dissolved in assay buffer (1×HBSS, 20 mM HEPES, pH 7.2) was added, and the cells were stained in a 37° C. incubator for 1 hr. The cells were taken out at room temperature and left standing for 15 min or more. A test substance (10 μL) was added by a 384 well type dispenser, and the mixture was incubated at room temperature for 10 min. Then, allylisothiocyanate (12.5 μL) at a final concentration of 20 μM was added by a fluorescence imaging plate reader (manufactured by Molecular Device, FLIPR), and changes in the relative fluorescence intensity were measured for 5 min.
Test Substance Preparation
The test substance was dissolved in dimethyl sulfoxide and serially diluted with an assay buffer containing 0.1% bovine serum albumin (1×HBSS, 20 mM HEPES, pH 7.2) to a 5-fold concentration of the evaluation concentration. Allylisothiocyanate, which is a known TRPA1 activator, was dissolved in dimethyl sulfoxide to 100 mM, and further diluted 5-fold (100 μM) of the final concentration, like the test substance.
Calculation of Antagonist Activity
Under the test substance-free conditions, the maximum variation range of the fluorescence intensity before and after allylisothiocyanate stimulation was defined to be 100% activity rate, and the variation range before and after buffer stimulation was defined as 0% activity rate. The activity rate on addition of the test substance was determined, and the numerical value obtained by subtracting the activity rate from 100 was defined to be an inhibitory rate. IC50, which is the concentration of the test substance necessary for reaching the 50% inhibitory rate, was calculated from the sigmoid approximate curve by a spreadsheet software Excel-Fit.

T2 sequence (O75762 whole entry): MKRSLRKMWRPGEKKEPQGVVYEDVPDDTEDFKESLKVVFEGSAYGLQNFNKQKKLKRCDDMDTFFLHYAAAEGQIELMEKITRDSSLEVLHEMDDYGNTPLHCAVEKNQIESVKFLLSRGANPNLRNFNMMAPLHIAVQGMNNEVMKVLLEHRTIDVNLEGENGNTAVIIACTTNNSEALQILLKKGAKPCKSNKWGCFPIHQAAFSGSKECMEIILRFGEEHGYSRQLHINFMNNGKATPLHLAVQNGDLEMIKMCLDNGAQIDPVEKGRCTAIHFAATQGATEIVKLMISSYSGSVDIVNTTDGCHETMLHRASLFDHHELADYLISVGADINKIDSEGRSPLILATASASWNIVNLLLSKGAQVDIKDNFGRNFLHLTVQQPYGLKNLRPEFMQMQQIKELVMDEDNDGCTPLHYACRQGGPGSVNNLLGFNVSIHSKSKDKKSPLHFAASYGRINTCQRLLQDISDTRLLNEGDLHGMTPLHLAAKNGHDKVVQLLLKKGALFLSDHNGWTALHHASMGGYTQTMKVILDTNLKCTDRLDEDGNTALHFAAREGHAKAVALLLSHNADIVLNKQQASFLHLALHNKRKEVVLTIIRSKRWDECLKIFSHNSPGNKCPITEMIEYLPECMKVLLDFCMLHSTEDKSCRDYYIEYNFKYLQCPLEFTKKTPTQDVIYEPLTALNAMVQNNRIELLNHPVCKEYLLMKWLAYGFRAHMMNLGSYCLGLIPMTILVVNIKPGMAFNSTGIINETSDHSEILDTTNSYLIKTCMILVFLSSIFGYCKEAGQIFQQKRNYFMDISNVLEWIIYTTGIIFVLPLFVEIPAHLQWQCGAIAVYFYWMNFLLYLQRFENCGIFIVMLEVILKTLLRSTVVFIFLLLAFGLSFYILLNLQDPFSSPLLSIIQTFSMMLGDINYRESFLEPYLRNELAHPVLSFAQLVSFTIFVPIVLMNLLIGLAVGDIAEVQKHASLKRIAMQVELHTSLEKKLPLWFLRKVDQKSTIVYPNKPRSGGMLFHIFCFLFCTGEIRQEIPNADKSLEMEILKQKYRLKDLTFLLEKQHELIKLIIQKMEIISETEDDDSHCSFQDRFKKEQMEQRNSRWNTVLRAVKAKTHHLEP

| IC50 [nM] | Compound |
| --- | --- |
| 140 | O=C(NCc1nc(-c2ccc(C(F)(F)F)cc2)cs1)[C@@H]1CCCN1S(=O)(=O)c1ccc(Cl)s1 [compound 1, (2S)-1-(5-chlorothiophene-2-sulfonyl)-N-({4-[4-(trifluoromethyl)phenyl]thiazol-2-yl}methyl)pyrrolidine-2-carboxamide] |
| 90 | O=C(NCc1nc(-c2ccc(OC(F)(F)F)cc2)cs1)[C@@H]1C=CCN1S(=O)(=O)c1ccc(Cl)s1 [compound 20, (2S)-1-(5-chlorothiophene-2-sulfonyl)-N-({4-(4-(trifluoromethoxy)phenyl]-thiazol-2-yl}methyl)-3,4-didehydropyrrolidine-2-carboxamide] |
| 200 | O=C(NCc1nc(-c2ccc(C(F)(F)F)cc2)cs1)[C@@H]1CCCN1S(=O)(=O)c1ccc(Br)s1 [compound 39, (2S)-1-(5-bromothiophene-2-sulfonyl)-N-({4-[4-(trifluoromethyl)phenyl]thiazol-2-yl}methyl)pyrrolidine-2-carboxamide] |
| 270 | O=C(NCc1nc(-c2ccc(C(F)(F)F)cc2)cs1)[C@@H]1CCCN1S(=O)(=O)c1cc(Br)c(Cl)s1 [compound 40, (2S)-1-(4-bromo-5-chlorothiophene-2-sulfonyl) ({4-[4-{trifluoromethyl)-phenyl]thiazol-2-yl}methyl) pyrrolidine-2-carboxamide] |
| 1900 | Cc1ccc(S(=O)(=O)N2CCC[C@H]2C(=O)NCc2nc(-c3ccc(C(F)(F)F)cc3)cs2)s1 [compound 41, (2S)-1-(5-methylthiophene-2-sulfonyl)-N-({4-[4-(trifluoro-methyl)phenyl]thiazol-2-yl}-methyl)pyrrolidine-2-carboxamide] |
| 1490 | O=C(NCc1nc(-c2ccc(C(F)(F)F)cc2)cs1)[C@@H]1CCCN1S(=O)(=O)c1ccc(Br)cc1 [compound 42, (2S)-1-(4-bromobenzene-2-sulfonyl)-N-({4-[4-(trifluoro-methyl)phenyl]thiazol-2-yl)-methyl)pyrrolidine-2-carboxamide] |
| 2700 | O=C(NCc1nc(-c2ccc(C(F)(F)F)cc2)cs1)[C@@H]1CCCN1S(=O)(=O)c1cccc(Cl)c1 [compound 43] |
| 120 | O=C(NCc1ccc(-c2ccc(OC(F)(F)F)cc2)s1)[C@@H]1CCCN1S(=O)(=O)c1ccc(Cl)s1 [compound 44, (2S)-1-(5-chlorothiophene-2-sulfonyl)-N-({5-[4-(trifluoro-methoxy)phenyl]-2-thienyl}methyl)pyrrolidine-2-carboxamide] |
| 110 | Cc1sc(-c2ccc(C(F)(F)F)cc2)nc1CNC(=O)[C@@H]1CCCN1S(=O)(=O)c1ccc(Cl)s1 [compound 45, (2S)-1-(5-chlorothiophene-2-sulfonyl)-N-({5-methyl-2-[4-(trifluoromethyl)phenyl]-thiazol-4-yl}methyl)-pyrrolidine-2-carboxamide] |
| 570 | O=C(NCc1nc(-c2ccc(C(F)(F)F)cc2)cs1)[C@@H]1CCCN1S(=O)(=O)c1ccc(Cl)nc1 [compound 46, (2S)-1-[(6-chloro-3-pyridyl)-sulfonyl]-N-({4-[4-(trifluoro-methyl)phenyl]thiazol-2-yl}-methyl)pyrrolidine-2-carboxamide] |
| 810 | O=C(NCc1nc(-c2ccc(C(F)(F)F)cc2)cs1)[C@@H]1CCCN1S(=O)(=O)c1ccccc1 [compound 47, (2S)-1-(benzenesulfonyl)-N-({4-[4-(trifluoromethyl)-phenyl]thiazol-2-yl}methyl)-pyrrolidine-2-carboxamide] |
| 990 | O=C(NCc1nc(-c2ccc(C(F)(F)F)cc2)cs1)[C@@H]1CCCN1S(=O)(=O)c1ccco1 [compound 48, (2S)-1-(2-furylsulfonyl)-N-({4-[4-(trifluoromethyl)-phenyl]thiazol-2-yl}methyl)-pyrrolidine-2-carboxamide] |
| 340 | O=C(NCc1nc(-c2ccc(C(F)(F)F)cc2)cs1)[C@@H]1CCCN1S(=O)(=O)c1ccsc1 [compound 49, (2S)-1-(3-thienylsulfonyl)-N-({4-[4-(trifluoromethyl)-phenyl)thiazol-2-yl}methyl)-pyrrolidine-2-carboxamide] |
| 100 | O=C(NCc1nc(-c2ccc(C(F)(F)F)cc2)cs1)[C@@H]1CCCN1S(=O)(=O)c1cccc(F)c1 [compound 50, (2S)-1-(3-fluorophenyl) sulfonyl-N-({4-(4-(trifluoro-methyl)phenyl]thiazol-2-yl)-methyl)pyrrolidine-2-carboxamide] |
| 60 | O=C(NCc1nc(-c2ccc(C(F)(F)F)cc2)cs1)[C@@H]1CCCN1S(=O)(=O)c1ccc(F)c(F)c1 [compound 51, (2S)-1-(3,4-difluorophenyl)sulfonyl-N-({4-[4-(trifluoromethyl)-phenyl)thiazol-2-yl}methyl)pyrrolidine-2-carboxamide] |
| 290 | O=C(NCc1nc(-c2ccc(C(F)(F)F)cc2)cs1)[C@@H]1CCCN1S(=O)(=O)c1ccc(F)c(Cl)c1 [compound 52, (2S)-1-(3-chloro-4-fluoro-phenyl)sulfonyl-N-({4-[4-(trifluoromethyl)phenyl]-thiazol-2-yl}methyl)pyrrolidine-2-carboxamide] |
| 4600 | O=C(NCc1nc(-c2ccc(C(F)(F)F)cc2)cs1)[C@@H]1CCCN1S(=O)(=O)c1ccc(F)cc1F [compound 53, (2S)-1-(2,4-difluorophenyl)sulfonyl-N-{{4-[4-(trifluoromethyl)-phenyl]thiazol-2-yl}methyl)pyrrolidine-2-carboxamide] |
| 170 | O=C(NCc1nc(-c2ccc(C(F)(F)F)cc2)cs1)[C@@H]1CCCN1S(=O)(=O)c1cc(F)cc(F)c1 [compound 54, (2S)-1-(3,5-difluorophenyl)sulfonyl-N-({4-[4-(trifluoromethyl)-phenyl]thiazol-2-yl}methyl)pyrrolidine-2-carboxamide] |
